Experimental data taken from article PMC8788362, “Rational design and synthesis of 2-(1H-indazol-6-yl)-1H-benzo[d]imidazole derivatives as inhibitors targeting FMS-like tyrosine kinase 3 (FLT3) and its mutants” (Journal of Enzyme Inhibition and Medicinal Chemistry, 2022).
Changes are numbered by the printed parent chain. Several values for one entry are separate records, joined by “and”; a condition that tells them apart may be missing. Equal entries are not always repeated. Where two headings read alike, the source gives them in different places.

Assays:
[1] = molecular target: T1, FLT3 wild type (Homo sapiens, UniProt P36888); test: Reaction Biology Kinase HotSpot radiometric kinase assay; format: biochemical; settings: ATP 10 µM
T1 construct: purchased Reaction Biology Corp. (Kinase HotSpot service)
T1 sequence (P36888 27-993): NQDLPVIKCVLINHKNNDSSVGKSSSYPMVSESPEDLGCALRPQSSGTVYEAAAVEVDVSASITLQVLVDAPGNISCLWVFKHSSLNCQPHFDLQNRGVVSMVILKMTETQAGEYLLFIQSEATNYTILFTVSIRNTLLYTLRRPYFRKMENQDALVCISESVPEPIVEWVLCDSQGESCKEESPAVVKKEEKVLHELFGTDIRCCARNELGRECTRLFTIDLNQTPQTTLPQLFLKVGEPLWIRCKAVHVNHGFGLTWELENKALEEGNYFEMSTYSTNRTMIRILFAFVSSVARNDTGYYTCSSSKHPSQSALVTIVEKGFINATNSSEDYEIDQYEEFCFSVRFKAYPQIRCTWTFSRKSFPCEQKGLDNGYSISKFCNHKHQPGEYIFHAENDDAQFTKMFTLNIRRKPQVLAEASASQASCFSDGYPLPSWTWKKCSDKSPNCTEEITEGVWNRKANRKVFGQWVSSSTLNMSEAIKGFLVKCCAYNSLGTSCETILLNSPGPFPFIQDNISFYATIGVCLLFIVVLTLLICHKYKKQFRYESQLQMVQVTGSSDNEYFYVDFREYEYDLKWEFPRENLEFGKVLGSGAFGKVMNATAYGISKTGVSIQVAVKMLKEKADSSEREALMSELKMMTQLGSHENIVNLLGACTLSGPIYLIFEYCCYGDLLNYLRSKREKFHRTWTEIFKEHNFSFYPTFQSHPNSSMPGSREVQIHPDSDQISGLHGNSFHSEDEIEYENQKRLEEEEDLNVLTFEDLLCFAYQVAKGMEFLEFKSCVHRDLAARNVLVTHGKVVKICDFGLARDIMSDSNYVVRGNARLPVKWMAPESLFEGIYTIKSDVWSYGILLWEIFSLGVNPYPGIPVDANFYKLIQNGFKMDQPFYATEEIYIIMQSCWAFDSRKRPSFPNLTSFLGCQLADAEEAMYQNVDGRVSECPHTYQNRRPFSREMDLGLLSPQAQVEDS
Excerpt: (§1) (specific activity approx. 500 cpm/pmol, concentration as required).

[2] = molecular target: T2, FLT3 (D835Y) (Homo sapiens, UniProt P36888, D835Y); test: as above; format: biochemical
T2 construct: purchased Reaction Biology Corp. (Kinase HotSpot service)
T2 sequence (P36888 27-993 D835Y): T1 sequence (P36888 27-993) with D809Y
Excerpt: as §1

| SMILES | IC50 ([1]; read-out: FLT3 IC50) | IC50 [2] | melting point | fold more potent against FLT3-D835Y than against wild-type FLT3 ([2]; ratio of IC50 values) | IC50 ([1]; read-out: FLT3 wild type IC50) |
| --- | --- | --- | --- | --- | --- |
| CCN1CCC(Nc2cc(C(=O)Nc3ccc4[nH]c(-c5ccc6cn[nH]c6c5)nc4c3)cc(C(F)(F)F)c2)CC1 [8t, N-(2-(1H-Indazol-6-yl)-1H-benzo[d]imidazol-5-yl)-3-((1-ethylpiperidin-4-yl)amino)-5-(trifluoromethyl)benzamide] | 285 nM | 87 nM | 166 to 168 °C | – | – |
| CN1CCN(c2cc(C(=O)Nc3ccc4[nH]c(-c5ccc6cn[nH]c6c5)nc4c3)cc(C(F)(F)F)c2)CC1 [8a, N-(2-(1H-Indazol-6-yl)-1H-benzo[d]imidazol-5-yl)-3–(4-methylpiperazin-1-yl)-5-(trifluoromethyl)benzamide] | 181 nM | 21 nM | 228 to 230 °C | – | – |
| O=C(Nc1ccc2[nH]c(-c3ccc4cn[nH]c4c3)nc2c1)c1cc(N2CCN(C3CC3)CC2)cc(C(F)(F)F)c1 [8p, N-(2-(1H-Indazol-6-yl)-1H-benzo[d]imidazol-5-yl)-3–(4-cyclopropylpiperazin-1-yl)-5-(trifluoromethyl)benzamide] | 409 nM | 131 nM | 154 to 156 °C | – | – |
| CN1CCCC(Nc2cc(C(=O)Nc3ccc4[nH]c(-c5ccc6cn[nH]c6c5)nc4c3)cc(C(F)(F)F)c2)C1 (centres unmarked) [8v, N-(2-(1H-Indazol-6-yl)-1H-benzo[d]imidazol-5-yl)-3-((1-methylpiperidin-3-yl)amino)-5-(trifluoromethyl)benzamide] | 107 nM | 8.86 nM and 9 nM | 213 to 214 °C | 7- to 12 fold | – |
| O=C(Nc1ccc2[nH]c(-c3ccc4cn[nH]c4c3)nc2c1)c1ccc(Cl)c(C(F)(F)F)c1 [8i, N-(2-(1H-Indazol-6-yl)-1H-benzo[d]imidazol-5-yl)-4-chloro-3-(trifluoromethyl)benzamide] | 676 nM | 84 nM | 215 to 217 °C | – | – |
| CN1CCN(c2ccc(C(=O)Nc3ccc4[nH]c(-c5ccc6cn[nH]c6c5)nc4c3)cc2C(F)(F)F)CC1 [8e, N-(2-(1H-Indazol-6-yl)-1H-benzo[d]imidazol-5-yl)-4–(4-methylpiperazin-1-yl)-3-(trifluoromethyl)benzamide] | 154 nM | 44 nM | 160 to 161 °C | – | – |
| CN(C)C1CCN(c2cc(C(=O)Nc3ccc4[nH]c(-c5ccc6cn[nH]c6c5)nc4c3)cc(C(F)(F)F)c2)C1 (centres unmarked) [8n, N-(2-(1H-Indazol-6-yl)-1H-benzo[d]imidazol-5-yl)-3–(3-(dimethylamino)pyrrolidin-1-yl)-5-(trifluoromethyl)benzamide] | 287 nM | 113 nM | 283 to 285 °C | – | – |
| O=C(Nc1ccc2[nH]c(-c3ccc4cn[nH]c4c3)nc2c1)c1ccc(N2CCOCC2)c(C(F)(F)F)c1 [8f, N-(2-(1H-Indazol-6-yl)-1H-benzo[d]imidazol-5-yl)-4-morpholino-3-(trifluoromethyl)benzamide] | 2510 nM | 370 nM | 202 to 204 °C | – | – |
| Cc1nccn1-c1cc(C(=O)Nc2ccc3[nH]c(-c4ccc5cn[nH]c5c4)nc3c2)cc(C(F)(F)F)c1 [8c, N-(2-(1H-Indazol-6-yl)-1H-benzo[d]imidazol-5-yl)-3–(2-methyl-1H-imidazol-1-yl)-5-(trifluoromethyl)benzamide] | 470 nM | 108 nM | 251 to 253 °C | – | – |
| CC(C)(C)c1cc(C(=O)Nc2ccc3[nH]c(-c4ccc5cn[nH]c5c4)nc3c2)no1 [8h, N-(2-(1H-Indazol-6-yl)-1H-benzo[d]imidazol-5-yl)-5-(tert-butyl)isoxazole-3-carboxamide] | 702 nM | 82 nM | 147 to 149 °C | – | – |
| O=C(Nc1ccc2[nH]c(-c3ccc4cn[nH]c4c3)nc2c1)c1ccc(Cl)c(Cl)c1 [8j, N-(2-(1H-Indazol-6-yl)-1H-benzo[d]imidazol-5-yl)-3,4-dichlorobenzamide] | 514 nM | 103 nM | 255 to 257 °C | – | – |
| CCN(CC)C1CCN(c2cc(C(=O)Nc3ccc4[nH]c(-c5ccc6cn[nH]c6c5)nc4c3)cc(C(F)(F)F)c2)C1 (centres unmarked) [8o, N-(2-(1H-Indazol-6-yl)-1H-benzo[d]imidazol-5-yl)-3–(3-(diethylamino)pyrrolidin-1-yl)-5-(trifluoromethyl)benzamide] | 841 nM | 120 nM | 221 to 223 °C | – | – |
| CN1CCC(Oc2cc(C(=O)Nc3ccc4[nH]c(-c5ccc6cn[nH]c6c5)nc4c3)cc(C(F)(F)F)c2)CC1 [8u, N-(2-(1H-Indazol-6-yl)-1H-benzo[d]imidazol-5-yl)-3-((1-methylpiperidin-4-yl)oxy)-5-(trifluoromethyl)benzamide] | 289 nM | 55 nM | 293 to 295 °C | – | – |
| CN1CCC(Oc2ccc(C(=O)Nc3ccc4[nH]c(-c5ccc6cn[nH]c6c5)nc4c3)cc2C(F)(F)F)CC1 [8x, N-(2-(1H-Indazol-6-yl)-1H-benzo[d]imidazol-5-yl)-4-((1-methylpiperidin-4-yl)oxy)-3-(trifluoromethyl)benzamide] | 743 nM | 145 nM | 293 to 295 °C | – | – |
| CN1CCC(Nc2cc(C(=O)Nc3ccc4[nH]c(-c5ccc6cn[nH]c6c5)nc4c3)cc(C(F)(F)F)c2)CC1 [8s, N-(2-(1H-Indazol-6-yl)-1H-benzo[d]imidazol-5-yl)-3-((1-methylpiperidin-4-yl)amino)-5-(trifluoromethyl)benzamide] | 158 nM | 25 nM | 175 to 177 °C | – | – |
| CCN1CCN(c2cc(C(=O)Nc3ccc4[nH]c(-c5ccc6cn[nH]c6c5)nc4c3)cc(C(F)(F)F)c2)CC1(C)C [8z, N-(2-(1H-Indazol-6-yl)-1H-benzo[d]imidazol-5-yl)-3–(4-ethyl-3,3-dimethylpiperazin-1-yl)-5-(trifluoromethyl)benzamide] | 66 nM | 46 nM | 153 to 154 °C | – | 65.9 nM |
| CCN1CCN(Cc2ccc(C(=O)Nc3ccc4[nH]c(-c5ccc6cn[nH]c6c5)nc4c3)cc2C(F)(F)F)CC1 [8w, N-(2-(1H-Indazol-6-yl)-1H-benzo[d]imidazol-5-yl)-4-((4-ethylpiperazin-1-yl)methyl)-3-(trifluoromethyl)benzamide] | 290 nM | 13 nM | 164 to 166 °C | – | – |
| CC(C)(C)c1cc(NC(=O)Nc2ccc3[nH]c(-c4ccc5cn[nH]c5c4)nc3c2)no1 [8l, 1–(2-(1H-Indazol-6-yl)-1H-benzo[d]imidazol-5-yl)-3–(5-(tert-butyl)isoxazol-3-yl)urea] | 1170 nM | 261 nM | 184 to 186 °C | – | – |
| O=C(Nc1ccc2[nH]c(-c3ccc4cn[nH]c4c3)nc2c1)c1cc(N2CCOCC2)cc(C(F)(F)F)c1 [8d, N-(2-(1H-Indazol-6-yl)-1H-benzo[d]imidazol-5-yl)-3-morpholino-5-(trifluoromethyl)benzamide] | 1030 nM | 151 nM | 195 to 196 °C | – | – |
